In PubChem BioAssay (NCI):
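Results reflect a 48-hour exposure of cells in 96-well plates to compound at five concentrations. Here, GI50 denotes the concentration required for 50% inhibition of growth. TGI is the concentration that stops growth completely.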

What was measured:
Test in all cases: inhibition of tumour cell growth, NCI panel, 48 h
SNB-75 CNS = test system: SNB-75 CNS
OVCAR-4 ovarian = test system: OVCAR-4 ovarian
IGROV1 ovarian = test system: IGROV1 ovarian
EKVX NSCLC = test system: EKVX NSCLC
MCF7 breast = test system: MCF7 breast
MALME-3M melanoma = test system: MALME-3M melanoma
K-562 leukemia = test system: K-562 leukemia
SK-MEL-5 melanoma = test system: SK-MEL-5 melanoma
ACHN renal = test system: ACHN renal
MDA-MB-435 = test system: MDA-MB-435

Structure (SMILES)	GI50 (SNB-75 CNS) [µM]	TGI (SNB-75 CNS) [µM]	GI50 (OVCAR-4 ovarian) [µM]	TGI (OVCAR-4 ovarian) [µM]	GI50 (IGROV1 ovarian) [µM]	TGI (IGROV1 ovarian) [µM]	GI50 (EKVX NSCLC) [µM]	TGI (EKVX NSCLC) [µM]	GI50 (MCF7 breast) [µM]	TGI (MCF7 breast) [µM]	GI50 (MALME-3M melanoma) [µM]	TGI (MALME-3M melanoma) [µM]	GI50 (K-562 leukemia) [µM]	TGI (K-562 leukemia) [µM]	GI50 (SK-MEL-5 melanoma) [µM]	TGI (SK-MEL-5 melanoma) [µM]	TGI (ACHN renal) [µM]	GI50 (MDA-MB-435) [µM]	TGI (MDA-MB-435) [µM]	GI50 (ACHN renal) [µM]
CCSc1ccc(C2C(Br)C(=O)N2c2cc(OC)c(OC)c(OC)c2)cc1 (stereo unspecified)	0.509	> 100	1.43	40.5	0.63	20.9	0.639	> 100	0.0447	17	11.3	32.4	0.0545	> 100	0.0861	2.84	–	–	–	–
CN(C)C(=O)Oc1c(-c2ccccc2)c(=O)n2c3ccccc3n3c(=O)n(C)c(=O)c1c23	–	> 100	–	> 100	–	> 100	–	> 100	–	–	–	> 100	–	–	–	> 100	> 100	–	–	–
O=C(CCC(=O)C1CCC/C1=N/O)Nc1ccc(Cl)cc1 (stereo unspecified)	–	> 100	–	> 100	–	> 100	–	> 100	–	–	–	> 100	–	> 100	–	> 100	> 100	–	–	–
CC(=O)N/C(=C\c1ccc(Cc2nc3c([nH]2)C(=O)c2ccccc2C3=O)cc1)c1nc2c([nH]1)C(=O)c1ccccc1C2=O	–	> 100	–	> 100	–	> 100	–	> 100	–	–	–	> 100	–	> 100	–	> 100	> 100	–	–	–
COc1cccc2c1n([O-])c1cccc(OC)c1[n+]2=O	–	–	–	–	4.8	66.1	7.26	37	3.15	25.6	8.05	25.7	6.13	> 100	3.59	14.9	> 100	10.9	36.2	4.35
NC(=S)NN=C1CSSC1	–	–	4.32	38.7	5	63.1	–	–	2.85	17.6	3.67	28.8	27	> 100	1.3	2.76	31.7	5.79	44.7	3.05
CC(=O)[O-].O=C([CH-]C(=O)c1ccccc1)c1ccccc1.O=C([CH-]C(=O)c1ccccc1)c1ccccc1.[Sm+3]	2.12	6.76	4.81	62.6	5.92	45.1	2.11	16.6	–	–	4.08	34	3.68	27.4	1.66	10.2	25.3	–	–	4.96
Cn1cccc1/C=C/c1cc(Br)c(/C=C/c2cccn2C)cc1Br	–	16.5	–	20.2	–	53.2	–	37.2	–	–	–	31.2	–	43.9	–	32	26.1	–	–	–
O=NN(CCCl)C(=O)NC1CCC(CC2CCC(NC(=O)N(CCCl)N=O)CC2)CC1 (stereo unspecified)	–	42.5	–	> 100	–	> 67.8	–	> 100	–	–	–	> 70.4	–	> 100	–	> 100	> 100	–	–	–
N#CCC(=O)N1CCCCCCC1	–	–	–	> 100	–	> 100	–	> 100	–	–	–	> 100	–	> 100	–	> 100	> 100	–	–	–
CC(C)=CC(=O)Cc1nc2ccc([N+](=O)[O-])cc2[nH]c1=O	–	> 100	–	> 100	–	> 100	–	> 100	–	–	–	> 100	–	> 100	–	> 100	> 100	–	–	–
O=C(CC/C(CC(=O)c1ccc(Br)cc1)=N\O)Nc1ccc(Cl)c(Cl)c1	–	> 100	–	> 100	–	> 100	–	> 100	–	–	–	> 100	–	> 100	–	> 100	> 100	–	–	–
CCC[CH2][Sn]1([CH2]CCC)[O]CC(C)[O]1 (stereo unspecified)	0.57	2.3	1.59	3.45	1.88	3.94	1.83	4	–	–	0.544	2.22	0.367	1.97	1.47	3.26	2.89	–	–	1.54
Cc1ccc(C(=O)CC2=Nc3nnc(CCCCCCCc4nnc5n4C(=O)C(CC(=O)c4ccc(C)cc4)=N5)n3C2=O)cc1	–	86.9	–	> 100	–	> 100	–	> 100	–	–	–	> 100	–	> 100	–	> 100	> 100	–	–	–
CC(=O)[CH-]C(C)=O.CC(=O)[CH-]C(C)=O.CC[O-].CC[O-].[Ti+4]	> 100	> 100	> 100	> 100	> 100	> 100	–	–	–	–	> 100	> 100	> 100	> 100	> 100	> 100	> 100	–	–	> 100
Cn1c(=O)c2/c(n(C)c1=O)=N\C=c1\c(=O)n(C)c(=O)n(C)\c1=N\C=2	–	> 100	–	> 100	–	> 100	–	> 100	–	–	–	> 100	–	> 100	–	> 100	> 100	–	–	–
Cc1cccc2c(O)cc(=O)oc12	–	> 100	–	> 100	–	> 100	–	> 100	–	–	–	> 100	–	> 100	–	–	> 100	–	–	–

Structure (SMILES)	GI50 (SNB-75 CNS) [µM]	TGI (SNB-75 CNS) [µM]	GI50 (OVCAR-4 ovarian) [µM]	TGI (OVCAR-4 ovarian) [µM]	GI50 (IGROV1 ovarian) [µM]	TGI (IGROV1 ovarian) [µM]	GI50 (EKVX NSCLC) [µM]	TGI (EKVX NSCLC) [µM]	GI50 (MCF7 breast) [µM]	TGI (MCF7 breast) [µM]	GI50 (MALME-3M melanoma) [µM]	TGI (MALME-3M melanoma) [µM]	GI50 (K-562 leukemia) [µM]	TGI (K-562 leukemia) [µM]	GI50 (SK-MEL-5 melanoma) [µM]	TGI (SK-MEL-5 melanoma) [µM]	TGI (ACHN renal) [µM]	GI50 (MDA-MB-435) [µM]	TGI (MDA-MB-435) [µM]	GI50 (ACHN renal) [µM]
O=[N+]([O-])c1ccc(C=NC23CC4CC(CC(C4)C2)C3)cc1	–	> 100	–	> 100	–	> 100	–	> 100	–	–	–	> 100	–	> 100	–	–	> 100	–	–	–
CN1C/C(=C\C=C\c2ccccc2)C(=O)/C(=C/C=C/c2ccccc2)C1	–	> 100	–	> 100	–	> 100	–	> 100	–	–	–	> 100	–	> 100	–	> 100	> 100	–	–	–
O=S1Nc2c(Cl)cc(Cl)c(Cl)c2S1 (stereo unspecified)	–	> 100	–	> 100	–	> 100	–	> 100	–	–	–	> 100	–	> 100	–	> 100	> 100	–	–	–
CCc1cccc(C)c1NC(=O)CC1C(=O)Nc2ccccc2S1(=O)=O (stereo unspecified)	–	31.2	–	29.6	–	35.2	–	41.9	–	–	–	33	–	14.7	–	44.4	47.4	–	–	–
O=c1oc2ccccc2c(O)c1C(C/C(CCN1CCCC1)=N\Nc1ccccc1)c1ccccc1 (stereo unspecified)	–	> 100	–	> 100	–	> 100	–	> 100	–	–	–	> 100	–	> 100	–	> 100	> 100	–	–	–
COC(=O)c1nn(C(=N)c2ccc(Cl)cc2)c2c1CCC2	–	> 100	–	> 100	–	> 100	–	–	–	–	–	> 100	–	> 100	–	> 100	> 100	–	–	–
OCCN1CCN(CC/C=C2/c3ccccc3Sc3ccc(Cl)cc32)CC1	–	12.3	–	31.5	–	28.6	–	31.3	–	–	–	13.1	–	8.65	–	16.5	29.7	–	–	–
C[C@]12CCC(=O)C=C1CC[C@@H]1C2CC[C@]2(C)c3nn(-c4ccccc4)nc3CC12 (stereo partly specified)	–	> 100	–	> 100	–	> 100	–	> 100	–	–	–	> 100	–	> 100	–	> 100	> 100	–	–	–
CC(=O)[CH-]C(=O)c1ccccc1.CC(=O)[CH-]C(=O)c1ccccc1.CC[O-].O=C1c2ccccc2C(=O)c2c1ccc(O)c2[O-].[Ti+4]	–	> 100	–	> 100	–	> 100	–	83.2	–	–	25.6	61	–	> 100	30.4	> 100	> 100	–	–	–
CN(C)CC/C(=N\Nc1ccc(Cl)cc1Cl)c1ccccc1	–	20.9	–	–	–	22.8	–	43.1	–	–	–	49.7	–	33.4	–	27.9	29.4	–	–	–
CCCCCCCCCCC(C)CCCCCCC(=O)O (stereo unspecified)	–	> 100	–	> 100	–	> 100	–	> 100	–	–	–	> 100	–	> 100	–	> 100	> 100	–	–	–
C/C=N\N1C(=O)c2ccccc2C1=O	–	> 100	–	> 100	–	> 100	–	> 100	–	–	–	> 100	–	> 100	–	> 100	> 100	–	–	–
CCN(CC)CCNC(=O)c1cccc2nc3ccccc3nc12	–	> 100	–	38.8	–	> 100	–	> 65.4	–	–	–	24.6	–	> 100	–	> 100	> 100	–	–	–
N.N.O=P([O-])([O-])C1(P(=O)([O-])[O-])CCCCCN1.[Pt+2]	29.5	88.1	> 100	> 100	> 100	> 100	–	–	–	–	> 100	> 100	> 100	> 100	> 100	> 100	> 100	–	–	> 100
O=C(O)/C(=C\c1ccncc1)c1cccc2ccccc12	–	> 100	–	> 100	–	> 100	–	> 100	–	–	–	> 100	–	> 100	–	> 100	–	–	> 100	–
NNC(=O)C(=O)N/N=C(\CCC(=O)Nc1ccc(Cl)cc1)Cc1nc2ccccc2s1	–	> 100	–	–	–	51.3	–	> 100	–	–	–	> 100	–	> 100	–	43.6	> 100	–	–	–
